Results: patent US5283193A, “Process for producing optically active α-substituted organic acid and microorganism and enzyme used therefor” (Asahi Kasei Kogyo K.K., priority 1988, dated 1994)

Test system: Nitrilase isolated from Acinetobacter sp. AK 226 strain
Experiment: Substrate specificity of purified nitrilase (hydrolysis of nitriles to organic acid and ammonia)
Protocol: 0.5 μmol of potassium phosphate buffer solution (pH 8.0) and 1.34 μmol of 2-(4'-isobutylphenyl)propionitrile are added to an appropriate amount of an enzyme solution so as to give a volume of 0.5 ml. After the mixture is reacted at 30° C. for 30 minutes, 0.1 ml of 80% acetic acid is added thereto to stop the reaction. The amounts of 2-(4'-isobutylphenyl)propionic acid and ammonia are measured. The amount of 2-(4'-isobutylphenyl)propionic acid is measured by means of high performance liquid chromatography wherein a Bondapack C18 column is used and a solvent obtained by mixing 0.05M phosphate buffer solution (pH 3) with 50% (v/v) of acetonitrile is used. The assay is performed at an absorbance of 254 nm.
amount of ammonia formed is measured according to J. Clin. Path., 13, 156 (1960).
The amount of enzyme required for forming 1 μmol of 2-(4'-isobutylphenyl)propionic acid or ammonia per one minute is referred to as one unit.

Row | Reaction rate with the S isomer compared with the R isomer (racemic substrate) | Compound | Relative activity
1 | much higher | CC(C)Cc1ccc(C(C)C#N)cc1 (stereo not shown) | –
2 | – | N#CC(Br)CBr (stereo not shown) [2,3-Dibromopropionitrile] | 90.3 ×10^2%
3 | – | N#CC(N)c1ccccc1 (stereo not shown) [2-Phenylglycinonitrile] | 0.000 ×10^2%
4 | – | CC#N [Acetonitrile] | 45.3 ×10^2%
5 | – | C=CC#N [Acrylonitrile] | 144 ×10^2%
6 | – | N#CCCl [Chloroacetonitrile] | 108 ×10^2%
7 | – | N#CCCCC#N [Glutaronitrile] | 50.9 ×10^2%
8 | – | N#CCO [Hydroxyacetonitrile] | 11.4 ×10^2%
9 | – | C=C(C)C#N [Methacrylonitrile] | 68.4 ×10^2%
10 | – | N#Cc1cccnc1 [Nicotinonitrile] | 52.7 ×10^2%
11 | – | CC(C)CCC#N [iso-Capronitrile] | 8.12 ×10^2%
12 | – | N#Cc1cccc(Cl)c1 [m-Chlorobenzonitrile] | 68.9 ×10^2%
13 | – | N#Cc1cccc([N+](=O)[O-])c1 [m-Nitrobenzonitrile] | 47.6 ×10^2%
14 | – | N#Cc1cccc(C#N)c1 [m-Phthalonitrile] | 80.7 ×10^2%
15 | – | Cc1cccc(C#N)c1 [m-Tolunitrile] | 74.8 ×10^2%
16 | – | CCCC#N [n-Butyronitrile] | 17.4 ×10^2%
17 | – | CCCCCC#N [n-Capronitrile] | 5.93 ×10^2%
18 | – | N#Cc1ccccc1F [o-Fluorobenzonitrile] | 50.4 ×10^2%
19 | – | Cc1ccccc1C#N [o-Tolunitrile] | 0.743 ×10^2%
20 | – | N#Cc1ccc(F)cc1 [p-Fluorobenzonitrile] | 83.9 ×10^2%
21 | – | CC(C#N)c1ccccc1 (stereo not drawn) [α-Phenylpropionitrile] | 0.534 ×10^2%
22 | – | Thiopheneacetonitrile | 45.5 ×10^2%
